In patent US20230172203A1, “PLANT METABOLISM PROMOTING COMPOSITIONS AND METHODS OF USE” (Panoptic Ag Solutions LLC, priority 2021, published 2023):

Assays:
tea plants = conditions: exogenous application; background statement; cited from earlier work
Almond trees = assay: 2021 Replicated California Almond Trial; format: in vivo
Protocol: Almond trees (n=6) were treated with a 20% aqueous solution of L-theanine at 1 pint per acre at pink bud and full bloom. Additional applications at 0.5 pint per acre soil were applied at petal fall, petal fall +3 weeks, and petal fall +6 weeks for a total of applications. The trial was maintained at grower standard fertilizer and pest management throughout the course of the trial.

Mature apple trees = assay: 2021 New York Replicated Apple Field Trial; format: in vivo
Protocol: Mature apple trees (n=6) were treated with a 20% aqueous L-theanine solution at 1 pint per acre with application timings at Pink Bud, Bloom, Petal Fall, and every 2 weeks from Petal Fall until harvest.

Dwarf sunflower = assay: 2021 Greenhouse Sunflower Trial; format: in vivo
From the text: The base formulation used in greenhouse trials was an aqueous solution of L-theanine (20% by weight). The base formulation was further diluted with water as detailed for each trial. Dwarf sunflower seeds (n=9/treatment) were planted in commercial potting soil in 1-gallon pots. Approximately 14 days after emergence, an L-theanine solution was applied to the foliage at the equivalent of 8 fl. oz./acre in 50 gallons of water (125 ppm) and sprayed till run off. One application was made.

Corn plants = assay: 2021 Greenhouse Corn Trial (drench, two rates); format: in vivo; conditions: for Plant Biomass / Root Length: drench 50 mL per pot, harvested 21 days later
Protocol: The base formulation used in greenhouse trials was an aqueous solution of L-theanine (20% by weight). The base formulation was further diluted with water as detailed for each trial. Corn seed (n=14/treatment) was planted in commercial potting soil in 3-gallon pots. Approximately 14 days after emergence, an aqueous solution of L-theanine was applied at a rate of 0.2 mL (Treatment 2) and 0.4 mL (Treatment 3) per 1000 mL water. The resulting solutions were drenched at a rate of 50 mL per pot. The plants were grown for an additional 21 days then harvested.

Soybean plants = assay: 2021 Greenhouse Soybean Trial (foliar application); format: in vivo
Protocol: The base formulation used in greenhouse trials was an aqueous solution of L-theanine (20% by weight). The base formulation was further diluted with water as detailed for each trial. Soybean seeds (n=12/treatment) were planted in commercial potting soil in 1 gallon pots. […] The plants were grown for another 14 days then harvested.

[1] = tested on: Seedless watermelon plant seedlings; assay: 2021 Watermelon Trial; format: in vivo
From the text: The base formulation used in greenhouse trials was an aqueous solution of L-theanine (20% by weight). The base formulation was further diluted with water as detailed for each trial. Seedless watermelon plant seedlings (n=4/treatment) were planted in commercial potting soil and then were transplanted to 3-gallon pots. L-theanine treatment was applied at the equivalent of 1 pint in 100 gallons of water (125 ppm) and sprayed till runoff. Two treatment applications were made to the plants approximately 14 days apart.

Zinnia plants = assay: 2021 Zinnia Greenhouse Trial; format: in vivo
From the text: The base formulation used in greenhouse trials was an aqueous solution of L-theanine (20% by weight). The base formulation was further diluted with water as detailed for each trial. Zinna seeds (n=6/treatment) were planted in commercial potting soil and then transplanted into 3-gallon pots. L-theanine treatment was applied at the equivalent of 1 pint in 100 gallons of water (125 ppm) and sprayed till runoff. Two treatments were made to the plants approximately 14 days apart.

[2] = tested on: Whale variety spinach plant seedlings; assay: 2021 Greenhouse Spinach Trial; format: in vivo
From the text: The base formulation used in greenhouse trials was an aqueous solution of L-theanine (20% by weight). The base formulation was further diluted with water as detailed for each trial. Whale variety spinach plant seedlings (n=6/treatment) were planted in commercial potting soil and then were transplanted to 3-gallon pots. L-theanine treatment was applied at the equivalent of 1 pint in 100 gallons of water (125 ppm) and sprayed till runoff. Two treatment applications were made to the plants approximately 14 days apart.

[3] = 20% aqueous solution at 1 pint per acre, Pink Bud, Bloom, Petal Fall, then every 2 weeks until harvest
[4] = foliar, 8 fl. oz./acre in 50 gallons of water (125 ppm), one application
[5] = over the untreated check, 125 ppm foliar, one application
[6] = Treatment 2 (0.2 mL per 1000 mL), above the untreated check
[7] = Treatment 2: 8 fl. oz./acre (0.2 mL per 1000 mL water)
[8] = Treatment 3 (0.4 mL per 1000 mL), above the untreated check
[9] = Treatment 3: 16 fl. oz./acre (0.4 mL per 1000 mL water)
[10] = above the untreated check, foliar 125 ppm
[11] = foliar, 8 fl. oz./50 gallons of water (125 ppm) till runoff, harvested 14 days later
[12] = foliar spray 125 ppm till runoff, two applications ~14 days apart
[13] = vs untreated check, 125 ppm foliar, two applications
[14] = foliar spray 125 ppm till runoff, two treatments ~14 days apart
[15] = over the untreated check, 125 ppm foliar, two treatments

## CCNC(=O)CC[C@H](N)C(=O)O [L-theanine]
Tea plants
  quality and yield of tea plants (in words): can improve the quality and yield of tea plants by increasing the number of usable leaves
Almond trees; 20% aqueous solution, 1 pint per acre at pink bud and full bloom, 0.5 pint per acre soil at petal fall, +3 weeks, +6 weeks
  Yield: 152.2 a lbs/tree
Almond trees; vs untreated check
  increase in almond yield (average): 15.3 lbs per tree
  increase in almond yield, percent: 11.2%
Mature apple trees; [3]
  Defects: 114.5 a bu/acre
  Salable Yield: 837.8 a bu/acre
  Total Yield: 952.3 a bu/acre
Mature apple trees; vs untreated check
  increase in salable yield, percent: 12.5%
  number of defective fruits (in words): reduced the number of defective fruits
Mature apple trees; vs untreated check, 1 bushel=48 lbs
  increase in salable yield: 93.1 bushels/acre
Dwarf sunflower; [4]
  Root Length: 1765.1 a cm
  Root Surface Area: 491.1 a cm^2
  Root Volume: 10.9 a cm^3
Dwarf sunflower; foliar, 8 fl. oz./acre in 50 gallons of water (125 ppm), one application ~14 days after emergence
  Plant Biomass: 38.63 a g
Dwarf sunflower; [5]
  increase in biomass: 4.4 grams
  increase in biomass, percent: 12.8%
  increase in root length: 70.5 cm
  increase in root length, percent: 4.2%
  increase in root surface area: 61.5 cm^2
  increase in root surface area, percent: 14.3%
  increase in root volume: 2.2 cm^3
  increase in root volume, percent: 25.3%
Corn plants; [6]
  change in biomass: 9.0 grams
  change in biomass, percent: 13.9%
  change in root length: −106.8
  change in root length, percent: −6.0%
Corn plants; [7]
  Plant Biomass: 74.0 a g
  Root Length: 1683.8 a cm
Corn plants; [8]
  change in biomass: 9.1 grams
  change in biomass, percent: 14.1%
  change in root length: 65.3
  change in root length, relative (in brackets): 3.6
Corn plants; [9]
  Plant Biomass: 74.1 a g
  Root Length: 1855.9 a cm
Soybean plants; [10]
  increase in biomass: 2.2 g
  increase in biomass, percent: 20.1%
  increase in root length: 254.6 cm
  increase in root length, percent: 13.2%
  increase in root tips: 1345.1
  increase in root tips, percent: 36.1%
Soybean plants; [11]
  Plant Biomass: 13.02 a g
  Root Length: 2185.8 a cm
  Root Tips (count): 5075.9 a count
[1]; [12]
  Fruit/Vine (count): 9.50 a count
  Vine Length: 51.0 a cm
[1]; [13]
  increase in average fruit per vine: 4.75
  increase in average fruit per vine, percent: 100.0%
  increase in vine development: 14.5 cm
  increase in vine development, percent: 39.7%
Zinnia plants; [14]
  Basal Diameter: 6.45 a mm
  Flower (count): 10.17 count
  Plant Height: 35.83 a cm
Zinnia plants; [15]
  increase in basal diameter: 1.2 mm
  increase in basal diameter, percent: 22.9%
  increase in flower counts: 6.0
  increase in flower counts, percent: 143.9%
  increase in plant height: 9.66 cm
  increase in plant height, percent: 36.9%
[2]; [12]
  Basal Diameter: 3.07 a mm
  Leaf (count): 8.66 a count
  Plant Height: 8.67 a in
[2]; [13]
  increase in leaf count: 1
  increase in leaf count, percent: 13.1%
  increase in plant height: 1.67 in
  increase in plant height, percent: 23.9%
